In the NIST ThermoML archive (doi:10.1016/j.tca.2013.03.018):

Conditions: Liquid, DSC

CCCCCCCCO [octan-1-ol]
Conditions | vapor or sublimation pressure [kPa]
333.69 K | 0.2242
333.97 K | 0.2242
334.46 K | 0.2376
341.76 K | 0.3855
342.1 K | 0.3855
343.33 K | 0.372
344.5 K | 0.3855
348.2 K | 0.5736
348.72 K | 0.587
349.1 K | 0.6004
349.38 K | 0.587
352.09 K | 0.7483
352.98 K | 0.802
353.96 K | 0.8087
354.96 K | 0.7886
357.9 K | 1.071
357.94 K | 1.057
357.99 K | 1.057
358.41 K | 1.071
362.88 K | 1.434
363.3 K | 1.447
363.51 K | 1.46
364.35 K | 1.474
369.69 K | 2.105
369.76 K | 2.092
369.9 K | 2.132
370 K | 2.132
379.04 K | 3.436
379.35 K | 3.489
379.45 K | 3.489
379.49 K | 3.489
387.2 K | 5.169
387.28 K | 5.156
387.87 K | 5.182
387.92 K | 5.169
407.24 K | 13.57
408.44 K | 13.58
408.9 K | 13.55
409.3 K | 13.55
435.48 K | 40.47
438.31 K | 40.53
438.58 K | 40.53
438.8 K | 40.53
468.15 K | 101.4
468.47 K | 101.4
